In patent US20110250135A1, “Piperazine Derivatives for Binding and Imaging Amyloid Plaques and Their Use” (Bayer Schering Pharma Aktiengesellschaft, priority 2008, published 2011):

What was measured:
[1] = target: T1, Aβ plaques (Homo sapiens, UniProt P05067); test: Autoradiographical analysis of binding to cryosections from cortex of AD patients and controls; details: F-18 labeled compound; Alzheimer's disease patients (AD) vs controls without Aβ plaques
T1 construct: controls without Aβ plaques; from tissue; host or cells: frontal lobe / cortex sections (frozen and paraffin) from AD patients, FTD patients and age-matched controls
Excerpt: Fresh frozen as well as paraffin embedded sections of the frontal lobe from Alzheimer's dementia patients, frontotemporal dementia patients and age matched controls were used for the study. Frozen sections, sliced at 18 μm thickness on a cryostate (Leica, Germany) and paraffin sections, sliced on a sliding microtom (Leica) at a thickness of 6 μm, were mounted onto glass slides (Superfrost Plus, Fa.Menzel, Braunschweig Germany). Frozen sections were allowed to adhere to the slides for several nights at −20° C. The paraffin sections were deparaffinized using routine histological methods. For binding studies sections were incubated with the F-18 labeled test compound at 10 Bq/μl diluted in 25 mM Hepes buffer, pH 7.4, 0.1% (BSA) (200-300 μl/slide) for 1.5 hour at room temperature in a humidified chamber. For blocking experiments a 1000-fold access of the unlabeled test substance was added to the incubation mixture. After hybridization, sections were washed four times with Hepes buffer, 0.1% BSA (or alternatively two times with 40% ethanol) and finally dipped two times into dest. water for 10 sec. The air-dried sections were exposed to imaging plates and signals were detected by a phosphoimager device (Fuji BAS5000).

[2] = Biodistribution: organ distribution of F-18 signal in mice; format: in vivo, male NMRI mice; details: for Organ distribution of F-18 signal, intestine: intestine (with content); for Organ distribution of F-18 signal, stomach: stomach (without content)
Protocol: Biodistribution and excretion studies were performed in male NMRI mice (body weight app. 30g; 3 animals per time point). The animals were kept under normal laboratory conditions at a temperature of 22±2° C. and a dark/light rhythm of 12 hours. Food and water were provided ad libitium. During an acclimation period of at least 3 days before the beginning of the study animals were clinically examined to ascertain the absence of abnormal clinical signs. At 2, 5, 30, 60, 240 min post intravenous injection via the tail vein of ca. 150 kBq in 100 μl of the test compound, urine and feces were quantitatively collected. At the same time points, animals were sacrificed by decapitation and under isoflurane anaesthesia and the following organs and tissues were removed for the determination of radioactivity using a gamma-counter: spleen, liver, kidney, lung, femur, heart, brain, fat, thyroid, muscle, skin, blood, tail, stomach (without content), testicle, intestine (with content), pancreas, adrenals, and the remaining body. For analysis the decay corrected percentage of the injected dose per tissue weight (% ID/g±standard deviation) was calculated.

T1 sequence (P05067 672-713 limits assumed): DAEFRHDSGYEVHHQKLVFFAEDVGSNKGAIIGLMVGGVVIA

## O=C(NCC(=O)N1CCN(c2ccc(OCc3ccccc3)cc2)CC1)c1ccnc([18F])c1 [Example 11c, N-{2-[4-(4-Benzyloxy-phenyl)-piperazin-1-yl]-2-oxoethyl}-2-[F-18]-fluoro-isonicotinamide]
[1]
  autoradiographical analysis of binding to cryosections from cortex: Specific binding in plaque-rich regions of AD samples
[2]; 2 min post i.v. injection
  Organ distribution of F-18 signal, adrenals: 9.24 % ID/g
  Organ distribution of F-18 signal, blood: 1.70 % ID/g
  Organ distribution of F-18 signal, brain: 5.54 % ID/g
  Organ distribution of F-18 signal, fat: 1.52 % ID/g
  Organ distribution of F-18 signal, femur: 1.53 % ID/g
  Organ distribution of F-18 signal, heart: 4.68 % ID/g
  Organ distribution of F-18 signal, intestine: 2.14 % ID/g
  Organ distribution of F-18 signal, kidney: 7.68 % ID/g
  Organ distribution of F-18 signal, liver: 7.17 % ID/g
  Organ distribution of F-18 signal, lung: 4.14 % ID/g
  Organ distribution of F-18 signal, muscle: 2.38 % ID/g
  Organ distribution of F-18 signal, pancreas: 4.44 % ID/g
  Organ distribution of F-18 signal, skin: 1.22 % ID/g
  Organ distribution of F-18 signal, spleen: 1.47 % ID/g
  Organ distribution of F-18 signal, stomach: 3.46 % ID/g
  Organ distribution of F-18 signal, tail: 8.55 % ID/g
  Organ distribution of F-18 signal, testicle: 1.36 % ID/g
  Organ distribution of F-18 signal, thyroid: 3.11 % ID/g
[2]; 5 min post i.v. injection
  Organ distribution of F-18 signal, adrenals: 5.60 % ID/g
  Organ distribution of F-18 signal, blood: 1.78 % ID/g
  Organ distribution of F-18 signal, brain: 4.73 % ID/g
  Organ distribution of F-18 signal, fat: 1.84 % ID/g
  Organ distribution of F-18 signal, femur: 1.54 % ID/g
  Organ distribution of F-18 signal, heart: 4.36 % ID/g
  Organ distribution of F-18 signal, intestine: 2.66 % ID/g
  Organ distribution of F-18 signal, kidney: 8.07 % ID/g
  Organ distribution of F-18 signal, liver: 12.14 % ID/g
  Organ distribution of F-18 signal, lung: 3.76 % ID/g
  Organ distribution of F-18 signal, muscle: 2.54 % ID/g
  Organ distribution of F-18 signal, pancreas: 3.97 % ID/g
  Organ distribution of F-18 signal, skin: 1.80 % ID/g
  Organ distribution of F-18 signal, spleen: 2.01 % ID/g
  Organ distribution of F-18 signal, stomach: 3.07 % ID/g
  Organ distribution of F-18 signal, tail: 5.41 % ID/g
  Organ distribution of F-18 signal, testicle: 1.70 % ID/g
  Organ distribution of F-18 signal, thyroid: 2.41 % ID/g
[2]; 30 min post i.v. injection
  Organ distribution of F-18 signal, adrenals: 2.41 % ID/g
  Organ distribution of F-18 signal, blood: 1.13 % ID/g
  Organ distribution of F-18 signal, brain: 1.00 % ID/g
  Organ distribution of F-18 signal, fat: 1.94 % ID/g
  Organ distribution of F-18 signal, femur: 0.68 % ID/g
  Organ distribution of F-18 signal, heart: 1.54 % ID/g
  Organ distribution of F-18 signal, intestine: 10.01 % ID/g
  Organ distribution of F-18 signal, kidney: 7.83 % ID/g
  Organ distribution of F-18 signal, liver: 9.41 % ID/g
  Organ distribution of F-18 signal, lung: 1.65 % ID/g
  Organ distribution of F-18 signal, muscle: 1.03 % ID/g
  Organ distribution of F-18 signal, pancreas: 2.20 % ID/g
  Organ distribution of F-18 signal, skin: 1.43 % ID/g
  Organ distribution of F-18 signal, spleen: 0.93 % ID/g
  Organ distribution of F-18 signal, stomach: 3.10 % ID/g
  Organ distribution of F-18 signal, tail: 3.21 % ID/g
  Organ distribution of F-18 signal, testicle: 1.13 % ID/g
  Organ distribution of F-18 signal, thyroid: 1.08 % ID/g
[2]; 60 min post i.v. injection
  Organ distribution of F-18 signal, adrenals: 2.45 % ID/g
  Organ distribution of F-18 signal, blood: 0.49 % ID/g
  Organ distribution of F-18 signal, brain: 0.34 % ID/g
  Organ distribution of F-18 signal, fat: 0.80 % ID/g
  Organ distribution of F-18 signal, femur: 0.38 % ID/g
  Organ distribution of F-18 signal, heart: 0.54 % ID/g
  Organ distribution of F-18 signal, intestine: 14.79 % ID/g
  Organ distribution of F-18 signal, kidney: 4.37 % ID/g
  Organ distribution of F-18 signal, liver: 4.72 % ID/g
  Organ distribution of F-18 signal, lung: 0.69 % ID/g
  Organ distribution of F-18 signal, muscle: 0.38 % ID/g
  Organ distribution of F-18 signal, pancreas: 0.77 % ID/g
  Organ distribution of F-18 signal, skin: 0.66 % ID/g
  Organ distribution of F-18 signal, spleen: 0.37 % ID/g
  Organ distribution of F-18 signal, stomach: 1.13 % ID/g
  Organ distribution of F-18 signal, tail: 0.87 % ID/g
  Organ distribution of F-18 signal, testicle: 0.65 % ID/g
  Organ distribution of F-18 signal, thyroid: 0.50 % ID/g
[2]; 240 min post i.v. injection
  Organ distribution of F-18 signal, adrenals: 0.30 % ID/g
  Organ distribution of F-18 signal, blood: 0.12 % ID/g
  Organ distribution of F-18 signal, brain: 0.05 % ID/g
  Organ distribution of F-18 signal, fat: 0.08 % ID/g
  Organ distribution of F-18 signal, femur: 0.16 % ID/g
  Organ distribution of F-18 signal, heart: 0.13 % ID/g
  Organ distribution of F-18 signal, intestine: 13.00 % ID/g
  Organ distribution of F-18 signal, kidney: 1.12 % ID/g
  Organ distribution of F-18 signal, liver: 2.09 % ID/g
  Organ distribution of F-18 signal, lung: 0.31 % ID/g
  Organ distribution of F-18 signal, muscle: 0.07 % ID/g
  Organ distribution of F-18 signal, pancreas: 0.18 % ID/g
  Organ distribution of F-18 signal, skin: 0.10 % ID/g
  Organ distribution of F-18 signal, spleen: 0.09 % ID/g
  Organ distribution of F-18 signal, stomach: 0.34 % ID/g
  Organ distribution of F-18 signal, tail: 0.39 % ID/g
  Organ distribution of F-18 signal, testicle: 0.15 % ID/g
  Organ distribution of F-18 signal, thyroid: 0.19 % ID/g
